From patent publication US9422267B2, “Fused pyrimidine compounds and use thereof” (Medivation Technologies, Inc., priority 2012, dated 2016)

Key:
[1] = target: SRC (Homo sapiens, UniProt P12931); assay: Caliper kinase profiling: SRC; type: biochemical
[2] = target: T1, BLK (Homo sapiens, UniProt P51451); assay: Caliper kinase profiling: BLK; type: biochemical
T1 construct: purchased Caliper LifeSciences (ProfilerPro Kinase Selectivity Assay Kits)

[3] = target: T2, EPHA1 (Homo sapiens, UniProt P21709); assay: Caliper kinase profiling: EPHA1; type: biochemical
T2 sequence (P21709 26-976): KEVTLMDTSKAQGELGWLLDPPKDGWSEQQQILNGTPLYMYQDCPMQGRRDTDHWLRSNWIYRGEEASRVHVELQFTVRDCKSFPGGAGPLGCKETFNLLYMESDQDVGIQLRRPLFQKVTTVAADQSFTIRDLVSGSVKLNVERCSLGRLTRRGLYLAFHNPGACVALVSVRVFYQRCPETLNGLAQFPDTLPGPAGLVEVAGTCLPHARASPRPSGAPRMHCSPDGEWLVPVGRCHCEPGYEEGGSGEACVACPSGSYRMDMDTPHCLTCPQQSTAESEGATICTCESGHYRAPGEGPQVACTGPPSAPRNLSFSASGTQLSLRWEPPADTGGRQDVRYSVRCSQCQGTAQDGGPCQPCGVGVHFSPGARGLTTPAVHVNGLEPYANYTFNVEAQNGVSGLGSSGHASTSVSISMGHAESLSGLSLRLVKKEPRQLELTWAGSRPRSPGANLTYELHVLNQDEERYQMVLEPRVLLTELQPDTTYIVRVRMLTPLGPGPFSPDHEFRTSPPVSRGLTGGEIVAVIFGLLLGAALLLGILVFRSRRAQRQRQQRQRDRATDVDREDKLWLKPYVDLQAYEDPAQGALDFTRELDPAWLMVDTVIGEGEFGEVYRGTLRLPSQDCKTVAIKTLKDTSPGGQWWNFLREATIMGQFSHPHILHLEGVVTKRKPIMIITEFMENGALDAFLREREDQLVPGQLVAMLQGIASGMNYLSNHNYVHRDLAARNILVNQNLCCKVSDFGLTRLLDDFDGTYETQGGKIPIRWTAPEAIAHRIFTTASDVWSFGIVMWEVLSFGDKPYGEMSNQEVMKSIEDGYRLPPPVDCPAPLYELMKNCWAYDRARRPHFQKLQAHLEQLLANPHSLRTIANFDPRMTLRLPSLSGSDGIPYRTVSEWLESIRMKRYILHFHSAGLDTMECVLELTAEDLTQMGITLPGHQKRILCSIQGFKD

[4] = system: ASPC-1; assay: Cell viability: pancreatic cancer cell line ASPC-1; type: cell-based; conditions: Homo sapiens, ASPC1; ASPC-1 pancreatic cancer cell line
Description: (§1) This assay quantitates the ATP present in order to determine the number of viable cells in culture. Briefly, the compounds were incubated with the cells for 72 h, followed by cell lysis. The resulting luminescent signal is proportional to the amount of ATP present and, therefore, directly proportional to the number of cells present in culture.
Analogous studies utilizing pancreatic cancer cell lines such as ASPC-1 and PANC-1 can be performed with compounds of the invention.

[5] = system: ZR-75-1; assay: Cell Titer-Glo cell viability: ZR-75-1; type: cell-based; conditions: Homo sapiens; ZR-75-1, breast cancer; 72 h
Description: Compound nos. […] This panel of cell lines includes an ER− breast carcinoma, primary breast ductal carcinoma, prostate adenocarcinoma, mammary adenocarcinoma, mammary ductal carcinoma, mammary ductal carcinoma, ovary adenocarcinoma, ER+ breast carcinoma, ER-HER2+ mammary ductal carcinoma and an ER+ mammary ductal carcinoma, respectively.
as §1

[6] = 10 nM, read-out: Average % Inh @ 10 nM
[7] = 100 nM, read-out: Average % Inh @ 100 nM
[8] = 1 μM, read-out: Average % Inh @ 1 μM

T1 sequence (P51451 whole entry): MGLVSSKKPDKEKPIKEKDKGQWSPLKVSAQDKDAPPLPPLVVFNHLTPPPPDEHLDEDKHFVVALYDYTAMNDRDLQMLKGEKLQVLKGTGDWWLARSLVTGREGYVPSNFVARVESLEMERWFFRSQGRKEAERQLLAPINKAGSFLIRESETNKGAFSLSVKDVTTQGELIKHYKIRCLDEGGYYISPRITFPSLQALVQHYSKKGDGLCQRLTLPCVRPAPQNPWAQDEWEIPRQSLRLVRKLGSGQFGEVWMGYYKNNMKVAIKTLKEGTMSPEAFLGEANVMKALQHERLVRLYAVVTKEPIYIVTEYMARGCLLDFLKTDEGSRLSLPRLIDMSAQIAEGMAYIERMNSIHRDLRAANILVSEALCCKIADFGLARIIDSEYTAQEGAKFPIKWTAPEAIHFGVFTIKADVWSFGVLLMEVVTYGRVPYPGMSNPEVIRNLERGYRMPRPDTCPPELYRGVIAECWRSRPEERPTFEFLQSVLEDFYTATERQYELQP
Chain of SRC (P12931 whole entry): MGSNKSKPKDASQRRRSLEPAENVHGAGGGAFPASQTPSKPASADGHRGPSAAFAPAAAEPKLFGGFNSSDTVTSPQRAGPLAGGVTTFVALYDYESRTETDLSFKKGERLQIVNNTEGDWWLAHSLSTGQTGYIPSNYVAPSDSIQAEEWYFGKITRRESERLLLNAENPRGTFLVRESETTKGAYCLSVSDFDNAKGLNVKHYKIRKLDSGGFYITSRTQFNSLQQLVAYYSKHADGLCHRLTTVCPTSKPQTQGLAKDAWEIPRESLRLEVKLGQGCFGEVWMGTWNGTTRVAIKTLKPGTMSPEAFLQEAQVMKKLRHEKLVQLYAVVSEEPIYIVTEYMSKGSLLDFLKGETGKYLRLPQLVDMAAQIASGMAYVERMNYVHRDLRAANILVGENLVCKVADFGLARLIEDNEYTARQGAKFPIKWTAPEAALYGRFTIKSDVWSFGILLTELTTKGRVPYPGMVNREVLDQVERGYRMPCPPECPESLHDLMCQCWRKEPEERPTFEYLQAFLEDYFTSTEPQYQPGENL

SMILES | inhibition at 0.01 µM [1, 6] [%] | inhibition at 0.1 µM [1, 7] [%] | inhibition at 1 µM [1, 8] [%] | inhibition at 0.01 µM [2, 6] [%] | inhibition at 0.1 µM [2, 7] [%] | inhibition at 1 µM [2, 8] [%] | inhibition at 0.01 µM ([3]; EPHA1, 10 nM, read-out: Average % Inh @ 10 nM) [%] | inhibition at 0.1 µM ([3]; EPHA1, 100 nM, read-out: Average % Inh @ 100 nM) [%] | inhibition at 1 µM ([3]; EPHA1, 1 μM, read-out: Average % Inh @ 1 μM) [%] | IC50 [4] [nM] | IC50 [5] [µM]
O=C(Nc1ccc(F)nc1)C1CCCN1c1nc2c(c(Nc3cc(C4CC4)[nH]n3)n1)CCC2 (single isomer, unassigned) [Compound 2b, 1-(4-(5-cyclopropyl-1H-pyrazol-3-ylamino)-6,7-dihydro-5H-cyclopenta[d]pyrimidin-2-yl)-N-(6-fluoropyridin-3-yl)pyrrolidine-2-carboxamide] | < 39 | > 60 | > 60 | < 39 | < 39 | > 60 | < 39 | 40 to 59 | > 60 | – | –
CC(C)c1cc(Nc2nc(N3CCCC3C(=O)Nc3ccc(F)nc3)nc3c2CCC3)n[nH]1 (single isomer, unassigned) [Compound 8b] | – | – | – | – | – | – | – | – | – | 195 | < 100
